Marks after values point to notes of the source that are not given here.
How the values were obtained:
E. coli = experiment: Effect of carvacrol concentration on survival of E. coli in ground beef irradiated at 0.25 kGy; format: cell-based, Escherichia coli (ATCC 25922); conditions: for Increase in Sensitivity: vs 0% carvacrol
Description: (§1) The irradiation treatments of ground beef samples for D10 determination was done using UC-15B irradiator (MDS-Nordion International Inc., Kanata, ON, Canada) equipped with a ^60Co source at a dose rate of 14.42 kGy/h). Irradiation doses used for D10 determination were ranged from 0.1 to 0.6 kGy for E. coli and from 0.50 to 2.0 kGy for S. typhi. Under frozen condition, the irradiation doses ranged from 0.1 to 0.7 kGy for E. coli and from 0.5 to 3.0 kGy for S. typhi. For the determination of the effect of various concentrations of carvacrol on the irradiation sensitivity, samples were irradiated at 0.25 kGy for E. coli and at 0.5 kGy for S. typhi. Irradiation doses used for D10 determination in chicken breast ranged from 0.1 to 0.7 kGy for E. coli and from 0.25 to 2.0 kGy for S. typhi. Samples were analysed immediately after irradiation to determine the microbial count.
(§2) Samples were homogenised for 2 min in sterile peptone water (0.1%) using a Lab-blender 400 stomacher (Laboratory Equipment, London, UK). From this mixture, serial dilutions were prepared and appropriate ones were pour-plated in tryptic soy agar (TSA) (Difco, Laboratories, Detroit, Mich., USA) and incubated at 35° C., 24 hours for the numeration of E. coli and S. typhi.
(§3) The effect of various concentrations of carvacrol in irradiated ground beef was evaluated in order to determine if lower concentrations of carvacrol could also increase the irradiation sensitivity of E. coli and S. typhi in ground beef. For these experiments, sterile ground beef was contaminated with either E. coli or S. typhi to a final concentration of 10^5 CFU/g. Various concentrations of carvacrol ranging from 0 to 2.0% were added to the ground beef samples and transferred in portions of 25 g each to sterile petri plates (60×15 nmu) then stored at 4° C. until irradiation treatment (approximately 15 h).

S. typhi = experiment: Effect of carvacrol concentration on survival of S. typhi in ground beef irradiated at 0.5 kGy; format: cell-based, Salmonella typhi (ATCC 19430); conditions: ground beef irradiated at 0.50 kGy; for Increase in Sensitivity: vs 0% carvacrol
Description: as §1, §2, §3

Cc1ccc(C(C)C)cc1O [Carvacrol, carvacrol]
Log CFU/g (E. coli; carvacrol 0.2%): 2.948 ± 0.088^b Log CFU/g | Increase in Sensitivity (E. coli; carvacrol 0.2%): 4.8% | Log CFU/g (E. coli; carvacrol 0.4%): 2.948 ± 0.068^b Log CFU/g | Increase in Sensitivity (E. coli; carvacrol 0.4%): 4.8% | Log CFU/g (E. coli; carvacrol 0.6%): 2.660 ± 0.037^c Log CFU/g | Increase in Sensitivity (E. coli; carvacrol 0.6%): 14.1% | Log CFU/g (E. coli; carvacrol 0.8%): 1.198 ± 0.065^d Log CFU/g | Increase in Sensitivity (E. coli; carvacrol 0.8%): 61.3% | Log CFU/g (E. coli; carvacrol 1.0%): 0.843 ± 0.000^e Log CFU/g | Increase in Sensitivity (E. coli; carvacrol 1.0%): 72.8% | Log CFU/g (E. coli; carvacrol […]): 0.000 ± 0.000^f Log CFU/g | Increase in Sensitivity (E. coli; carvacrol […]): 100% | Log CFU/g (S. typhi; carvacrol 0.50%): 3.526 ± 0.061^b Log CFU/g | Increase in Sensitivity (S. typhi; carvacrol 0.50%): 15.4% | Log CFU/g (S. typhi; carvacrol 1.00%): 2.545 ± 0.112^d Log CFU/g | Increase in Sensitivity (S. typhi; carvacrol 1.00%): 39.0% | Log CFU/g (S. typhi; carvacrol 1.75%): 0.000 ± 0.000^g Log CFU/g | Increase in Sensitivity (S. typhi; carvacrol 1.75%): 100% | Log CFU/g (S. typhi; carvacrol 2.00%): 0.000 ± 0.000^g Log CFU/g | Increase in Sensitivity (S. typhi; carvacrol 2.00%): 100%

Reference: patent US20050118310A1, “Formulations of compounds derived from natural sources and their use with irradiation for food preservation” (priority 2001, published 2005)
